Like-named read-outs stand apart in the source and are kept apart here. *1 amine or outer side, *2 acyl side, *3 side chain or, on linkers, in order; H or OH if unused. Where a SMILES comes first, the peptide text is derived from it. Bridges are numbered along the chain shown (N, C = ends). [ ]: non-standard residue; d: D form. The star is where a group is joined. NMePhe(2-(4-MorPh),5-Cl) = CN[C@@H](Cc1cc(Cl)ccc1-c1ccc(N2CCOCC2)cc1)C(=O)O; X101 = CN([C@@H](Cc1cc(Cl)ccc1-c1cnn(C2CS(=O)(=O)C2)c1)C(=O)[*:2])[*:1]; X72 = CN([C@@H](Cc1cc(Cl)ccc1-c1cnn(C2CCS(=O)(=O)C2)c1)C(=O)[*:2])[*:1]; X13 = CN([C@@H](Cc1cc(Cl)ccc1-c1cnn(CCS(C)(=O)=O)c1)C(=O)[*:2])[*:1]; X46 = CN([C@@H](Cc1cc(Cl)ccc1-c1ccc(S(C)(=O)=O)cc1)C(=O)[*:2])[*:1]; X55 = CN([C@@H](Cc1cc(Cl)ccc1-c1cnn(CCN2CCOCC2)c1)C(=O)[*:2])[*:1]; X82 = CN([C@@H](Cc1cc(Cl)ccc1-c1cnn(S(C)(=O)=O)c1)C(=O)[*:2])[*:1]; X16 = CN([C@@H](Cc1cc(Cl)ccc1-c1cnc2c(cnn2C)c1)C(=O)[*:2])[*:1]; X30 = CN([C@@H](Cc1cc(Cl)ccc1-c1ccc2c(c1)ncn2C)C(=O)[*:2])[*:1]; X99 = CC(=O)N1CCC(Oc2ccc(Cl)cc2C[C@@H](C(=O)[*:2])N(C)[*:1])CC1; X111 = CN([C@@H](Cc1cc(Cl)ccc1-c1nnc(C2CC2)o1)C(=O)[*:2])[*:1]; NMehhhLys(Me) = CN([C@@H](CCCCCCCN(C)[*:3])C(=O)[*:2])[*:1]; X64 = CN([C@@H](Cc1cc(Cl)ccc1OC1(C)CC1)C(=O)[*:2])[*:1]; NMe(hhhLys) = CN([C@@H](CCCCCCCN[*:3])C(=O)[*:2])[*:1]; NMe3Pal(2-OMe,5-Cl) = CN[C@@H](Cc1cc(Cl)cnc1OC)C(=O)O; Oxane2carbonyl(2R-CF3) = O=C([C@@]1(C(F)(F)F)CCCCO1)*; cBuCO(3,3-F2-1-CF3) = O=C(C1(C(F)(F)F)CC(F)(F)C1)*; X4 = Cc1ccc(Cl)cc1C[C@@H](C(=O)[*:2])N(C)[*:1]; Pro(trans-4-F) = O=C(O)[C@@H]1C[C@@H](F)CN1; Gly(cPr) = N[C@H](C(=O)O)C1CC1
Tests used:
CyclinB1/CDK1 = molecular target: T1, CyclinB1/CDK1 (Homo sapiens, UniProt P14635); assay: Fluorescence Polarization (FP) competitive binding assay, Cyclin B1/Cdk1;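 note: fluorescence polarization read after equilibration at room temperature, with IC50 taken from serially diluted dose-response curves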
T1 construct: purchased Eurofins, discovery 14-450

CyclinA2/CDK2 = molecular target: T2, CyclinA2/CDK2 (Homo sapiens, UniProt P20248); assay: Fluorescence Polarization (FP) competitive binding assay, Cyclin A2/Cdk2;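 note: plates equilibrated two hours at room temperature before polarization reading, IC50 fitted from eight-concentration compound titration curves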
T2 construct: purchased CRELUX Protein Services

CyclinE1/CDK2 = molecular target: T3, CyclinE1/CDK2 (Homo sapiens, UniProt P24864); assay: Fluorescence Polarization (FP) competitive binding assay, Cyclin E1/Cdk2;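 note: readings taken after two-hour equilibration at room temperature in HEPES buffer with NaCl, DTT, NP-40 and BSA, IC50 fitted from eight-concentration serial dilution series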
T3 construct: purchased Eurofins, discovery 14-475

WI-38 cells = assay: MTT proliferation assay, WI-38; type: cell-based; details: 3 days compound exposure, 1:3 serial dilution starting at 10 μM;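 note: Eight- or ten-point dilution series, with exposure length chosen to span about three to four cell doublings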
NCI-H1048 cells = assay: MTT proliferation assay, NCI-H1048; type: cell-based; details: 5 days compound exposure, 1:3 serial dilution starting at 10 μM;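 note: Dose-response in 96-well plates over 8 or 10 concentration points, with exposure spanning 3-4 cell doublings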
OVCAR3 cells = assay: MTT proliferation assay, OVCAR3; type: cell-based; details: 5 days compound exposure, 1:3 serial dilution starting at 10 μM;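 note: compound given as an 8- or 10-point series, one day after plating, with exposure covering roughly 3-4 cell doublings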
[1] = read-out: Cyclin B FP IC50; 10 nM Cyclin B1/Cdk1, 2 nM FAM probe; average of 2-3 independent experiments
[2] = 10 nM Cyclin B1/Cdk1, 2 nM FAM probe; average of 2-3 independent experiments; read-out: Cyclin B FP IC50
[3] = 8 nM Cyclin A2/Cdk2, 2 nM FAM probe, average of 2-3 independent experiments, read-out: Cyclin A FP IC50
[4] = 10 nM Cyclin E1/Cdk2, 2 nM FAM probe, average of 2-3 independent experiments, read-out: Cyclin E FP IC50

| SMILES | IC50 (CyclinB1/CDK1; [1]) [nM] | IC50 (CyclinA2/CDK2) [nM] | IC50 (CyclinE1/CDK2) [nM] | GI50 (WI-38 cells) [nM] | GI50 (NCI-H1048 cells) [nM] | GI50 (OVCAR3 cells) [nM] | IC50 (CyclinB1/CDK1; [2]) [nM] | IC50 (CyclinA2/CDK2; [3]) [nM] | IC50 (CyclinE1/CDK2; [4]) [nM] | IC50 (CyclinA2/CDK2; read-out: Cyclin A FP IC50, 8 nM Cyclin A2/Cdk2, 2 nM FAM probe, average of 2-3 independent experiments) [nM] |
| --- | --- | --- | --- | --- | --- | --- | --- | --- | --- | --- |
| CC(C)C[C@@H]1NC(=O)[C@@H](N(C)C(=O)[C@@H](NC(=O)[C@@H]2C[C@@H](F)CN2C(=O)C2(C(F)(F)F)CC(F)(F)C2)C2CC2)CCCCCCCN(C)C(=O)[C@H](Cc2cc(Cl)ccc2-c2cnn(S(C)(=O)=O)c2)N(C)C1=O [Example 238] ({cBuCO(3,3-F2-1-CF3)}-[Pro(trans-4-F)][Gly(cPr)][NMehhhLys(Me)]L[X82]; lactam 3-C) | 20 | 30 | 990 | 17300 | 10 | 20 |  |  |  |  |
| [2H]C([2H])([2H])n1cc(-c2ccc(Cl)cc2C[C@H]2C(=O)N(C)CCCCCCC[C@H](N(C)C(=O)[C@@H](NC(=O)[C@@H]3C[C@@H](F)CN3C(=O)C3(C(F)(F)F)CC(F)(F)C3)C3CC3)C(=O)N[C@@H](CC(C)C)C(=O)N2C)cn1 [Example 239] |  |  |  | 14300 | 20 | 20 | 20 | 20 | 420 |  |
| CC(C)C[C@@H]1NC(=O)[C@@H](N(C)C(=O)[C@@H](NC(=O)[C@@H]2C[C@@H](F)CN2C(=O)C2(C(F)(F)F)CC(F)(F)C2)C2CC2)CCCCCCCN(C)C(=O)[C@H](Cc2cc(Cl)ccc2-c2nnc(C3CC3)o2)N(C)C1=O [Example 240] ({cBuCO(3,3-F2-1-CF3)}-[Pro(trans-4-F)][Gly(cPr)][NMehhhLys(Me)]L[X111]; lactam 3-C) | 20 |  | 140 | 8730 | 10 | 10 |  |  |  | 20 |
| CC(=O)N1CCC(Oc2ccc(Cl)cc2C[C@H]2C(=O)N(C)CCCCCCC[C@H](N(C)C(=O)[C@@H](NC(=O)[C@@H]3C[C@@H](F)CN3C(=O)C3(C(F)(F)F)CC(F)(F)C3)C3CC3)C(=O)N[C@@H](CC(C)C)C(=O)N2C)CC1 [Example 243] ({cBuCO(3,3-F2-1-CF3)}-[Pro(trans-4-F)][Gly(cPr)][NMehhhLys(Me)]L[X99]; lactam 3-C) | 20 | 50 | 690 | 13300 | 50 | 40 |  |  |  |  |
| CC(C)C[C@@H]1NC(=O)[C@@H](N(C)C(=O)[C@@H](NC(=O)[C@@H]2C[C@@H](F)CN2C(=O)C2(C(F)(F)F)CC(F)(F)C2)C2CC2)CCCCCCCN(C)C(=O)[C@H](Cc2cc(Cl)ccc2-c2cnc3c(cnn3C)c2)N(C)C1=O [Example 250] ({cBuCO(3,3-F2-1-CF3)}-[Pro(trans-4-F)][Gly(cPr)][NMehhhLys(Me)]L[X16]; lactam 3-C) | 20 | 30 | 1620 | 5550 | 30 | 30 |  |  |  |  |
| CC(C)C[C@@H]1NC(=O)[C@@H](N(C)C(=O)[C@@H](NC(=O)[C@@H]2C[C@@H](F)CN2C(=O)C2(C(F)(F)F)CC(F)(F)C2)C2CC2)CCCCCCCN(C)C(=O)[C@H](Cc2cc(Cl)ccc2-c2ccc3c(c2)ncn3C)N(C)C1=O [Example 251] ({cBuCO(3,3-F2-1-CF3)}-[Pro(trans-4-F)][Gly(cPr)][NMehhhLys(Me)]L[X30]; lactam 3-C) | 20 | 40 | 930 | 13900 | 10 | 10 |  |  |  |  |
| CC(C)C[C@@H]1NC(=O)[C@@H](N(C)C(=O)[C@@H](NC(=O)[C@@H]2C[C@@H](F)CN2C(=O)C2(C(F)(F)F)CC(F)(F)C2)C2CC2)CCCCCCCN(C)C(=O)[C@H](Cc2cc(Cl)ccc2-c2cnn(C3CCS(=O)(=O)C3)c2)N(C)C1=O (stereo partly drawn) [Example 253] ({cBuCO(3,3-F2-1-CF3)}-[Pro(trans-4-F)][Gly(cPr)][NMehhhLys(Me)]L[X72]; lactam 3-C) |  |  |  | 9930 | 40 | 20 | 20 | 20 | 330 |  |
| CC(C)C[C@@H]1NC(=O)[C@@H](N(C)C(=O)[C@@H](NC(=O)[C@@H]2C[C@@H](F)CN2C(=O)C2(C(F)(F)F)CC(F)(F)C2)C2CC2)CCCCCCCN(C)C(=O)[C@H](Cc2cc(Cl)ccc2-c2cnn(C3CS(=O)(=O)C3)c2)N(C)C1=O [Example 255] ({cBuCO(3,3-F2-1-CF3)}-[Pro(trans-4-F)][Gly(cPr)][NMehhhLys(Me)]L[X101]; lactam 3-C) |  |  |  | 15800 | 40 | 30 | 20 | 20 | 210 |  |
| CC(C)C[C@@H]1NC(=O)[C@@H](N(C)C(=O)[C@@H](NC(=O)[C@@H]2C[C@@H](F)CN2C(=O)C2(C(F)(F)F)CC(F)(F)C2)C2CC2)CCCCCCCN(C)C(=O)[C@H](Cc2cc(Cl)ccc2-c2cnn(CCN3CCOCC3)c2)N(C)C1=O [Example 256] ({cBuCO(3,3-F2-1-CF3)}-[Pro(trans-4-F)][Gly(cPr)][NMehhhLys(Me)]L[X55]; lactam 3-C) |  |  |  | 13200 | 10 | 10 | 20 | 30 | 480 |  |
| CC(C)C[C@@H]1NC(=O)[C@@H](N(C)C(=O)[C@@H](NC(=O)[C@@H]2C[C@@H](F)CN2C(=O)C2(C(F)(F)F)CC(F)(F)C2)C2CC2)CCCCCCCN(C)C(=O)[C@H](Cc2cc(Cl)ccc2-c2cnn(CCS(C)(=O)=O)c2)N(C)C1=O [Example 257] ({cBuCO(3,3-F2-1-CF3)}-[Pro(trans-4-F)][Gly(cPr)][NMehhhLys(Me)]L[X13]; lactam 3-C) |  |  |  | 13300 | 10 | 10 | 20 | 20 | 120 |  |
| CC(C)C[C@@H]1NC(=O)[C@@H](N(C)C(=O)[C@@H](NC(=O)[C@@H]2C[C@@H](F)CN2C(=O)C2(C(F)(F)F)CC(F)(F)C2)C2CC2)C/C=C\CCCCN(C)C(=O)[C@H](Cc2cc(Cl)cnc2OC2CC2)N(C)C1=O [Example 258] |  |  |  | 14200 | 70 | 70 | 20 | 70 | 120 |  |
| CC(C)C[C@@H]1NC(=O)[C@@H](N(C)C(=O)[C@@H](NC(=O)[C@@H]2C[C@@H](F)CN2C(=O)C2(C(F)(F)F)CC(F)(F)C2)C2CC2)CCCCCCCN(C)C(=O)[C@H](Cc2cc(Cl)ccc2OC2(C)CC2)N(C)C1=O [Example 259] ({cBuCO(3,3-F2-1-CF3)}-[Pro(trans-4-F)][Gly(cPr)][NMehhhLys(Me)]L[X64]; lactam 3-C) |  |  |  | 10400 | 110 | 110 | 20 | 70 | 280 |  |
| CC(C)C[C@@H]1NC(=O)[C@@H](N(C)C(=O)[C@@H](NC(=O)[C@@H]2C[C@@H](F)CN2C(=O)[C@@]2(C(F)(F)F)CCCCO2)C2CC2)CCCCCCCN(C)C(=O)[C@H](Cc2cc(Cl)ccc2OC2(C)CC2)N(C)C1=O [Example 260] ({Oxane2carbonyl(2R-CF3)}-[Pro(trans-4-F)][Gly(cPr)][NMehhhLys(Me)]L[X64]; lactam 3-C) |  |  |  | 6390 | 40 | 40 | 20 | 50 | 100 |  |
| CC(C)C[C@@H]1NC(=O)[C@@H](N(C)C(=O)[C@@H](NC(=O)[C@@H]2C[C@@H](F)CN2C(=O)C2(C(F)(F)F)CC(F)(F)C2)C2CC2)CCCCCCCN(C)C(=O)[C@H](Cc2cc(Cl)ccc2-c2ccc(N3CCOCC3)cc2)N(C)C1=O [Example 261] ({cBuCO(3,3-F2-1-CF3)}-[Pro(trans-4-F)][Gly(cPr)][NMehhhLys(Me)]L[NMePhe(2-(4-MorPh),5-Cl)]; lactam 3-C) |  |  |  | 14100 | 10 | 10 | 20 | 20 | 430 |  |
| CC(C)C[C@@H]1NC(=O)[C@@H](N(C)C(=O)[C@@H](NC(=O)[C@@H]2C[C@@H](F)CN2C(=O)C2(C(F)(F)F)CC(F)(F)C2)C2CC2)CCCCCCCN(C)C(=O)[C@H](Cc2cc(Cl)ccc2-c2ccc(S(C)(=O)=O)cc2)N(C)C1=O [Example 262] ({cBuCO(3,3-F2-1-CF3)}-[Pro(trans-4-F)][Gly(cPr)][NMehhhLys(Me)]L[X46]; lactam 3-C) |  |  |  | 16200 | 10 | 20 | 20 | 20 | 910 |  |
| Cc1ccc(Cl)cc1C[C@H]1C(=O)NCCCCCCC[C@H](N(C)C(=O)[C@@H](NC(=O)[C@@H]2C[C@@H](F)CN2C(=O)C2(C(F)(F)F)CC(F)(F)C2)C2CC2)C(=O)N[C@@H](CC(C)C)C(=O)N1C [Example 270] ({cBuCO(3,3-F2-1-CF3)}-[Pro(trans-4-F)][Gly(cPr)][NMe(hhhLys)]L[X4]; lactam 3-C) |  |  |  | 13400 | 80 | 70 | 20 | 60 | 370 |  |
| COc1ncc(Cl)cc1C[C@H]1C(=O)NCCCCCCC[C@H](N(C)C(=O)[C@@H](NC(=O)[C@@H]2C[C@@H](F)CN2C(=O)[C@@]2(C(F)(F)F)CCCCO2)C2CC2)C(=O)N[C@@H](CC(C)C)C(=O)N1C [Example 274] ({Oxane2carbonyl(2R-CF3)}-[Pro(trans-4-F)][Gly(cPr)][NMe(hhhLys)]L[NMe3Pal(2-OMe,5-Cl)]; lactam 3-C) |  |  |  | 10500 | 10 | 10 | 20 | 30 | 100 |  |
